“Also recorded” adds a separate entry of the source. Non-standard residues stand in square brackets, D forms with d. Residues, ends and D or L forms follow the SMILES beside them. Nrpe = C[C@@H](NCC(=O)O)c1ccccc1; NFurfurylGly = O=C(O)CNCc1ccco1; Nleu = CC(C)CNCC(=O)O; Nlys = NCCCCNCC(=O)O

Assay [1] concerns CD4+ T cells from MOG 35-55 TCR transgenic mice. Nature of the assay: CFSE proliferation assay. It is filed as cell-based, mouse. The following applies: 1-500 μM peptoid, stimulated with MOG 35-55 peptide and antigen presenting cells. On the procedure:
(§1) Following CD4+ T cell isolation, Vα2.3Vβ8.2 TCR transgenic T cells, B cells, or MOG-35-55 TCR transgenic T cells were labeled with CFSE (molecular probes) according to manufacturer's instructions. Briefly, cells were resuspended at a concentration of 1×10^6 per ml in PBS and incubated with 0.5 μM CFSE at 37° C. for 10 min. The staining was quenched with addition of 5 volumes of culture media containing 10% FBS. The cells were centrifuged, washed, and resuspended in complete RPMI 1640 media. The cells were then plated at 1×10^6 per ml. and incubated with increasing concentrations of either AG12A peptoid or a control peptoid (1 μM, 10 μM, 20 μM, 40 μM, 60 μM, 80 μM, 100 μM, 200 μM, or 500 μM) for 30 min at 37° C. Antigen presenting cells were isolated from spleens of WT B10.PL mice and 10 μg/ml of MBP Acl-11, MOG 35-55, or LPS were then added to the culture to stimulate the cells. The cells were left in culture for 5 days, stained with an anti-CD4-PerCp antibody (BD Biosciences), and run on the FACS Calibur flow cytometer to assess cell division. The data were analyzed using Flowjo software (Treestar) proliferation platform to determine percentage of dividing cells. The percent division was graphed using Graphpad Prism software and depicted as a line graph.

Assay [2] has as its system CD4+ MBP Acl-11 specific murine TCR transgenic T cells. Nature of the assay: CFSE proliferation assay. The class given is cell-based, mouse. The following applies: 1-500 μM peptoid, MBP Acl-11 peptide 10 μg/ml and antigen presenting cells, 5 days. On the procedure:
as §1

Assay [3] relates to B cells from B10.PL wild-type mice. Put plainly: CFSE proliferation assay. The class given is cell-based, mouse. The conditions noted are these: 1-500 μM peptoid, stimulated with LPS. On the procedure: as §1
Assay [4] deals with CD4+ T cells from B10.PL wild-type control mice. Put plainly: Binding of quantum dot-labeled T cells to peptoid resynthesized on beads. On the set-up: species or system mouse. The following applies: Tentagel beads, red quantum dot-labeled T cells. On the procedure: Approximately 300,000 beads were swelled in DMF, washed with PBS, and equilibrated in complete RPMI 1640 media containing 3% BSA. CD4+ T cells isolated from either EAE or wild-type mice were resuspended in RPMI and labeled using quantum dots (Invitrogen) according to manufacturer's instructions. […] Labeled cells were mixed in a 1:1 ratio with a total of approximately 10×10^6 of each cell type. The cells were then incubated with the peptoid bead library overnight in a 37° C. incubator with 5% CO2 and gentle shaking. The beads were gently washed 2 times with RPMI media and were then visualized under a fluorescent microscope (Olympus BX-51) with excitation 340-380 nm using a DAPI filter (100×total magnification). Beads binding only to red labeled cells were selected manually using a 20 μl pipette. The “hit” beads were then washed, boiled with 1% SDS for 30 minutes and subjected to automated Edman sequencing.
To determine whether AG12A was binding to the autoreactive TCR, the inventors took advantage of the existence of transgenic mice, in which the vast majority of CD4+ T cells express the MBP Acl-11 specific TCR (Vα2.3/Vβ8.2 TCR) (Goverman et al., 1993). CD4+ T cells were isolated from these mice and tested for binding to AG12A. This was done in several ways. First, AG12A was resynthesized on beads, as was a control peptoid not selected as a T cell ligand (FIG. 6). […]

Assay [5] deals with CD4+ T cells from MBP Acl-11 TCR transgenic mice. The description is as above. On the set-up: species or system mouse. The conditions noted are these: Tentagel beads, red quantum dot-labeled T cells. From the text:
Approximately 300,000 beads were swelled in DMF, washed with PBS, and equilibrated in complete RPMI 1640 media containing 3% BSA. CD4+ T cells isolated from either EAE or wild-type mice were resuspended in RPMI and labeled using quantum dots (Invitrogen) according to manufacturer's instructions. CD4+ T cells from EAE mice were labeled with Qtracker 655 (red) and CD4+ T cells from wild-type mice were labeled with Qtracker 565 (green). Labeled cells were mixed in a 1:1 ratio with a total of approximately 10×10^6 of each cell type. The cells were then incubated with the peptoid bead library overnight in a 37° C. incubator with 5% CO2 and gentle shaking. The beads were gently washed 2 times with RPMI media and were then visualized under a fluorescent microscope (Olympus BX-51) with excitation 340-380 nm using a DAPI filter (100×total magnification). Beads binding only to red labeled cells were selected manually using a 20 μl pipette. The “hit” beads were then washed, boiled with 1% SDS for 30 minutes and subjected to automated Edman sequencing.
To determine whether AG12A was binding to the autoreactive TCR, the inventors took advantage of the existence of transgenic mice, in which the vast majority of CD4+ T cells express the MBP Acl-11 specific TCR (Vα2.3/Vβ8.2 TCR) (Goverman et al., 1993). CD4+ T cells were isolated from these mice and tested for binding to AG12A. […]

Assay [6] deals with Vα2.3/Vβ8.2 MBP Acl-11 TCR transgenic T cells. Put plainly: Flow cytometry binding assay (periodate cross-linking, streptavidin-APC MFI). The conditions noted are these: biotin-DOPA-AG12A 1-500 μM, cross-linked with periodate; MFI fitted with Graphpad Prism; estimated. On the set-up: species or system mouse. On the procedure: Following isolation of CD4+ T cells from TCR transgenic mice and WT controls, cells were washed and resuspended in 0.1% PBS/BSA (FACS buffer). The cells were incubated with increasing concentrations (1 μM, 10 μM, 100 μM, 250 μM, or 500 μM) of either the biotin-DOPA-AG12A peptoid or a biotin-DOPA-control peptoid and incubated for 30 min at 37° C. 5 mM sodium periodate was added to the cells briefly to cross-link the peptoid to the target receptor. This reaction was quenched with DTT and the cells were washed twice with 0.1% PBS/BSA. Fc block (BD Biosciences) was added to the cells for 15 min on ice in order to reduce non-specific binding to Fc receptors. The cells were stained with 1 μg anti CD4-PerCp Cy5.5 antibody and 0.02 μg streptavidin-APC antibody (BD Biosciences) for 15 minutes on ice. The staining was followed by 2 washes with 0.1% PBS/BSA and the cells were run on a FACS Calibur flow cytometer to assess peptoid binding. The data were analyzed using Flowjo software (Treestar) to determine the mean fluorescent intensity and are shown as histograms. The mean fluorescent intensities (MFI) were plotted using Graphpad Prism software to determine an estimated Kd value and are depicted as a line graph.

In general, Kd refers to the concentration at which binding is half-saturated. `CC(C)CN(CC(=O)N(CCCCN)CC(=O)N(CC(=O)N(CC(=O)N(CCCCN)CC(=O)N(CC(=O)N(CCCCN)CC(=O)N(CCCCN)CC(N)=O)CC(C)C)[C@H](C)c1ccccc1)Cc1ccco1)C(=O)CNCCCCN` [AG12A] (H-[Nlys][Nleu][Nlys][NFurfurylGly][Nrpe][Nlys][Nleu][Nlys][Nlys]-NH2): the “inhibition of proliferation (percent division)” value in assay [1] is given as “did not inhibit”; in assay [2], “inhibits proliferation”; in assay [3], “nor did AG12A inhibit”. Besides, the entries for the “binding of T cells to peptoid displayed on beads” value in assay [4] and in assay [5] were “did not; also recorded: do not bind” and “bound; also recorded: bind to AG12A peptoid beads”, respectively. Also, the Kd in assay [6] was roughly 40 µM.

Values taken from patent US20130178835A1, “IDENTIFYING SYNTHETIC LIGANDS THAT BIND T-CELLS FROM PATIENTS HAVING AN AUTOIMMUNE DISEASE” (The Board of Regents of the University of Texas System, priority 2009, published 2013).
